≈ marks a conversion by molar mass, not a printed value.
How the values were obtained:
Candida albicans [1] = assay: Antifungal activity against Candida albicans ATCC 44859 after 48 hrs by broth microdilution method; format: functional; conditions: ATCC 44859, 48 h
Nakaseomyces glabratus [2] = assay: Antifungal activity against Candida glabrata 20/I after 24 hrs by broth microdilution method; format: functional
Aspergillus fumigatus [3] = assay: Antifungal activity against Aspergillus fumigatus 231 after 48 hrs by broth microdilution method; format: functional; conditions: Aspergillus fumigatus, 231, 48 h
A-431 = assay: Cytotoxicity against human A431 cells assessed as cell viability after 48 hrs by MTS assay; format: cell-based; conditions: A-431, 48 h
Nakaseomyces glabratus [4] = assay: Antifungal activity against Candida glabrata 20/I after 48 hrs by broth microdilution method; format: functional
[5] = system: Staphylococcus epidermidis; assay: Antibacterial activity against Staphylococcus epidermidis HK6996/08 after 24 hrs by broth microdilution method; format: functional; conditions: HK6996/08, 24 h
Trichosporon asahii [6] = assay: Antifungal activity against Trichosporon asahii 1188 after 48 hrs by broth microdilution method; format: functional; conditions: Trichosporon asahii, 1188, 48 h
Mycobacterium kansasii [7] = assay: Antimycobacterial activity against Mycobacterium kansasii 6509/96 clinical isolate after 7 days by micromethod; format: functional; conditions: 6509/96, 168 h
MDCK = assay: Cytotoxicity against MDCK cells assessed as cell viability after 48 hrs by MTS assay; format: cell-based; conditions: Canis lupus familiaris
Candida tropicalis [8] = assay: Antifungal activity against Candida tropicalis 156 after 24 hrs by broth microdilution method; format: functional; conditions: Candida tropicalis, 156, 24 h
[9] = system: Mycobacterium tuberculosis; assay: Antimycobacterial activity against Mycobacterium tuberculosis CNCTC My 331/88 after 21 days by micromethod; format: functional; conditions: CNCTC My 331/88, 504 h
Trichosporon asahii [10] = assay: Antifungal activity against Trichosporon asahii 1188 after 24 hrs by broth microdilution method; format: functional; conditions: Trichosporon asahii, 1188, 24 h
[11] = system: Trichophyton mentagrophytes; assay: Antifungal activity against Trichophyton mentagrophytes 445 after 72 hrs by broth microdilution method; format: functional; conditions: Trichophyton mentagrophytes, 445, 72 h
Enterococcus sp. [12] = assay: Antibacterial activity against Enterococcus sp. HK14365/08 after 24 hrs by broth microdilution method; format: functional; conditions: HK14365/08, 24 h
[13] = Cytotoxicity against human HuH7 cells assessed as cell viability at 30 uM after 48 hrs by MTS assay relative to control; format: cell-based, Huh-7; conditions: read-out: Activity
Lichtheimia corymbifera [14] = assay: Antifungal activity against Absidia corymbifera 272 after 24 hrs by broth microdilution method; format: functional; conditions: Lichtheimia corymbifera, 272, 24 h
[15] = system: Staphylococcus epidermidis; assay: Antibacterial activity against Staphylococcus epidermidis HK6996/08 after 48 hrs by broth microdilution method; format: functional; conditions: HK6996/08, 48 h
Klebsiella pneumoniae [16] = assay: Antibacterial activity against extended spectrum beta-lactamase producing Klebsiella pneumoniae HK14368/08 after 24 hrs by broth microdilution method; format: functional; conditions: HK14368/08, 24 h
Escherichia coli [17] = assay: Antibacterial activity against Escherichia coli ATCC 8739 after 48 hrs by broth microdilution method; format: functional; conditions: ATCC 8739, 48 h
Mycobacterium kansasii [18] = assay: Antimycobacterial activity against Mycobacterium kansasii CNCTC My 235/80 after 7 days by micromethod; format: functional; conditions: CNCTC My 235/80, 168 h
Pichia kudriavzevii [19] = assay: Antifungal activity against Candida krusei E28 after 48 hrs by broth microdilution method; format: functional; conditions: E28, 48 h
Klebsiella pneumoniae [20] = assay: Antibacterial activity against Klebsiella pneumoniae HK11750/08 after 48 hrs by broth microdilution method; format: functional; conditions: HK11750/08, 48 h
[21] = Cytotoxicity against human HepG2 cells assessed as cell viability at 30 uM after 48 hrs by MTS assay relative to control; format: cell-based; conditions: read-out: Activity
Aspergillus fumigatus [22] = assay: Antifungal activity against Aspergillus fumigatus 231 after 24 hrs by broth microdilution method; format: functional; conditions: Aspergillus fumigatus, 231, 24 h
Candida tropicalis [23] = assay: Antifungal activity against Candida tropicalis 156 after 48 hrs by broth microdilution method; format: functional; conditions: Candida tropicalis, 156, 48 h
Lichtheimia corymbifera [24] = assay: Antifungal activity against Absidia corymbifera 272 after 48 hrs by broth microdilution method; format: functional; conditions: Lichtheimia corymbifera, 272, 48 h
Mycobacterium avium [25] = assay: Antimycobacterial activity against Mycobacterium avium CNCTC My 330/88 after 14 days by micromethod; format: functional; conditions: CNCTC My 330/88, 336 h
Staphylococcus aureus [26] = assay: Antibacterial activity against Staphylococcus aureus ATCC 6538 after 24 hrs by broth microdilution method; format: functional; conditions: ATCC 6538, 24 h
Mycobacterium kansasii [27] = assay: Antimycobacterial activity against Mycobacterium kansasii CNCTC My 235/80 after 21 days by micromethod; format: functional; conditions: CNCTC My 235/80, 504 h
Huh-7 = assay: Cytotoxicity against human HuH7 cells assessed as cell viability after 48 hrs by MTS assay; format: cell-based; conditions: Huh-7, 48 h
[28] = Cytotoxicity against MDCK cells assessed as cell viability at 30 uM after 48 hrs by MTS assay relative to control; format: cell-based, Canis lupus familiaris; conditions: dog, read-out: Activity
Pseudomonas aeruginosa [29] = assay: Antibacterial activity against Pseudomonas aeruginosa ATCC 9027 after 48 hrs by broth microdilution method; format: functional; conditions: ATCC 9027, 48 h
Staphylococcus aureus [30] = assay: Antibacterial activity against Staphylococcus aureus ATCC 6538 after 48 hrs by broth microdilution method; format: functional; conditions: ATCC 6538, 48 h
Mycobacterium kansasii [31] = assay: Antimycobacterial activity against Mycobacterium kansasii 6509/96 clinical isolate after 21 days by micromethod; format: functional; conditions: 6509/96, 504 h
HepG2 = assay: Cytotoxicity against human HepG2 cells assessed as cell viability after 48 hrs by MTS assay; format: cell-based; conditions: HepG2, 48 h
Klebsiella pneumoniae [32] = assay: Antibacterial activity against Klebsiella pneumoniae HK11750/08 after 24 hrs by broth microdilution method; format: functional; conditions: HK11750/08, 24 h
Staphylococcus aureus [33] = assay: Antibacterial activity against methicillin-resistant Staphylococcus aureus HK5996/08 after 48 hrs by broth microdilution method; format: functional; conditions: HK5996/08, 48 h
Staphylococcus aureus [34] = assay: Antibacterial activity against methicillin-resistant Staphylococcus aureus HK5996/08 after 24 hrs by broth microdilution method; format: functional; conditions: HK5996/08, 24 h
Escherichia coli [35] = assay: Antibacterial activity against Escherichia coli ATCC 8739 after 24 hrs by broth microdilution method; format: functional; conditions: ATCC 8739, 24 h
Mycobacterium avium [36] = assay: Antimycobacterial activity against Mycobacterium avium CNCTC My 330/88 after 21 days by micromethod; format: functional; conditions: CNCTC My 330/88, 504 h
[37] = system: Mycobacterium tuberculosis; assay: Antimycobacterial activity against Mycobacterium tuberculosis CNCTC My 331/88 after 14 days by micromethod; format: functional; conditions: CNCTC My 331/88, 336 h
Candida albicans [38] = assay: Antifungal activity against Candida albicans ATCC 44859 after 24 hrs by broth microdilution method; format: functional; conditions: ATCC 44859, 24 h
Mycobacterium kansasii [39] = assay: Antimycobacterial activity against Mycobacterium kansasii 6509/96 clinical isolate after 14 days by micromethod; format: functional; conditions: 6509/96, 336 h
[40] = Cytotoxicity against human A431 cells assessed as cell viability at 30 uM after 48 hrs by MTS assay relative to control; format: cell-based, A-431; conditions: read-out: Activity
Klebsiella pneumoniae [41] = assay: Antibacterial activity against extended spectrum beta-lactamase producing Klebsiella pneumoniae HK14368/08 after 48 hrs by broth microdilution method; format: functional; conditions: HK14368/08, 48 h
[42] = system: Trichophyton mentagrophytes; assay: Antifungal activity against Trichophyton mentagrophytes 445 after 120 hrs by broth microdilution method; format: functional; conditions: Trichophyton mentagrophytes, 445, 120 h
[43] = Selectivity index, ratio of IC50 for human HepG2 cells to MIC for Mycobacterium tuberculosis; format: toxicity; conditions: read-out: Selectivity Index
Enterococcus sp. [44] = assay: Antibacterial activity against Enterococcus sp. HK14365/08 after 48 hrs by broth microdilution method; format: functional; conditions: HK14365/08, 48 h
Pichia kudriavzevii [45] = assay: Antifungal activity against Candida krusei E28 after 24 hrs by broth microdilution method; format: functional; conditions: E28, 24 h
Pseudomonas aeruginosa [46] = assay: Antibacterial activity against Pseudomonas aeruginosa ATCC 9027 after 24 hrs by broth microdilution method; format: functional; conditions: ATCC 9027, 24 h
Mycobacterium kansasii [47] = assay: Antimycobacterial activity against Mycobacterium kansasii CNCTC My 235/80 after 14 days by micromethod; format: functional; conditions: CNCTC My 235/80, 336 h
[48] = system: Mycobacterium tuberculosis; assay: Antimycobacterial activity against Mycobacterium tuberculosis MDR_CHUV by resazurin reduction microplate assay; format: functional
[49] = system: Mycobacterium tuberculosis; assay: Antimycobacterial activity against Mycobacterium tuberculosis after 14 days; format: functional; conditions: 336 h

## COc1ccc(CSc2nnc(-c3cc([N+](=O)[O-])cc([N+](=O)[O-])c3)o2)cc1
Candida albicans [1]
  MIC: > 500 µM
Nakaseomyces glabratus [2]
  MIC: > 500 µM
Aspergillus fumigatus [3]
  MIC: > 500 µM
A-431
  IC50: > 30 µM
Nakaseomyces glabratus [4]
  MIC: > 500 µM
[5]
  MIC: > 500 µM
Trichosporon asahii [6]
  MIC: > 500 µM
Mycobacterium kansasii [7]
  MIC: 0.125 µM (≈ 0.0485 µg/mL)
MDCK
  IC50: > 30 µM
Candida tropicalis [8]
  MIC: > 500 µM
[9]
  MIC: 0.06 µM (≈ 0.0233 µg/mL)
Trichosporon asahii [10]
  MIC: > 500 µM
[11]
  MIC: > 500 µM
Enterococcus sp. [12]
  MIC: > 500 µM
[13]
  viability at 48 h, 30 µM: 118%
Lichtheimia corymbifera [14]
  MIC: > 500 µM
[15]
  MIC: > 500 µM
Klebsiella pneumoniae [16]
  MIC: > 500 µM
Escherichia coli [17]
  MIC: > 500 µM
Mycobacterium kansasii [18]
  MIC: 0.125 µM (≈ 0.0485 µg/mL)
Pichia kudriavzevii [19]
  MIC: > 500 µM
Klebsiella pneumoniae [20]
  MIC: > 500 µM
[21]
  viability at 48 h, 30 µM: 126%
Aspergillus fumigatus [22]
  MIC: > 500 µM
Candida tropicalis [23]
  MIC: > 500 µM
Lichtheimia corymbifera [24]
  MIC: > 500 µM
Mycobacterium avium [25]
  MIC: 4 µM (≈ 1.55 µg/mL)
Staphylococcus aureus [26]
  MIC: > 500 µM
Mycobacterium kansasii [27]
  MIC: 0.125 µM (≈ 0.0485 µg/mL)
Huh-7
  IC50: > 30 µM
[28]
  viability at 48 h, 30 µM: 119%
Pseudomonas aeruginosa [29]
  MIC: > 500 µM
Staphylococcus aureus [30]
  MIC: > 500 µM
Mycobacterium kansasii [31]
  MIC: 0.25 µM (≈ 0.0971 µg/mL)
HepG2
  IC50: > 30 µM
Klebsiella pneumoniae [32]
  MIC: > 500 µM
Staphylococcus aureus [33]
  MIC: > 500 µM
Staphylococcus aureus [34]
  MIC: > 500 µM
Escherichia coli [35]
  MIC: > 500 µM
Mycobacterium avium [36]
  MIC: 4 µM (≈ 1.55 µg/mL)
[37]
  MIC: 0.03 µM (≈ 0.0117 µg/mL)
Candida albicans [38]
  MIC: > 500 µM
Mycobacterium kansasii [39]
  MIC: 0.25 µM (≈ 0.0971 µg/mL)
[40]
  viability at 48 h, 30 µM: 93%
Klebsiella pneumoniae [41]
  MIC: > 500 µM
[42]
  MIC: > 500 µM
[43]
  selectivity ratio: > 1000
Enterococcus sp. [44]
  MIC: > 500 µM
Pichia kudriavzevii [45]
  MIC: > 500 µM
Pseudomonas aeruginosa [46]
  MIC: > 500 µM
Mycobacterium kansasii [47]
  MIC: 0.125 µM (≈ 0.0485 µg/mL)

## O=c1nc(N2CCN(CC3CCCCC3)CC2)sc2c([N+](=O)[O-])cc(C(F)(F)F)cc12 [MACOZINONE]
[48]
  MIC: 0.0004 µM (≈ 0.000183 µg/mL)

## C[C@]1(COc2ccc(N3CCC(Oc4ccc(OC(F)(F)F)cc4)CC3)cc2)Cn2cc([N+](=O)[O-])nc2O1 [DELAMANID]
[49]
  MIC: 0.023 µM (≈ 0.0123 µg/mL)

Source: ChEMBL document CHEMBL4002566, “S-substituted 3,5-dinitrophenyl 1,3,4-oxadiazole-2-thiols and tetrazole-5-thiols as highly efficient antitubercular agents” (Eur J Med Chem, 2017)
